The supplement of paper PMC13380429

Tests used:
Details in all cases: 72 h
U2OS [1] = experiment: cell viability relative to DMSO; higher = less toxic
HepG2 [2] = experiment: as above
Caco-2 [3] = experiment: as above
Vero E6 [4] = experiment: as above
Calu-3 [5] = experiment: as above
U2OS [6] = experiment: relative viability EC50 (midpoint between 100% and the lowest measured viability); higher = less toxic
HepG2 [7] = experiment: as above
Caco-2 [8] = experiment: as above
Vero E6 [9] = experiment: as above
Calu-3 [10] = experiment: as above
U2OS [11] = experiment: drug sensitivity score (DSS) for viability; higher = more toxic; extreme values may be limits of the assay
HepG2 [12] = experiment: as above
Caco-2 [13] = experiment: as above
Vero E6 [14] = experiment: as above
Calu-3 [15] = experiment: as above

Row | SMILES | cell viability (U2OS [1]; 1 nM) | cell viability (U2OS [1]; 10 nM) | cell viability (U2OS [1]; 100 nM) | cell viability (U2OS [1]; 1000 nM) | cell viability (U2OS [1]; 10000 nM) | cell viability (HepG2 [2]; 1 nM) | cell viability (HepG2 [2]; 10 nM) | cell viability (HepG2 [2]; 100 nM) | cell viability (HepG2 [2]; 1000 nM) | cell viability (HepG2 [2]; 10000 nM) | cell viability (Caco-2 [3]; 1 nM) | cell viability (Caco-2 [3]; 10 nM) | cell viability (Caco-2 [3]; 100 nM) | cell viability (Caco-2 [3]; 1000 nM) | cell viability (Caco-2 [3]; 10000 nM) | cell viability (Vero E6 [4]; 1 nM) | cell viability (Vero E6 [4]; 10 nM) | cell viability (Vero E6 [4]; 100 nM) | cell viability (Vero E6 [4]; 1000 nM) | cell viability (Vero E6 [4]; 10000 nM) | cell viability (Calu-3 [5]; 1 nM) | cell viability (Calu-3 [5]; 10 nM) | cell viability (Calu-3 [5]; 100 nM) | cell viability (Calu-3 [5]; 1000 nM) | cell viability (Calu-3 [5]; 10000 nM) | relative viability EC50 (U2OS [6]) | relative viability EC50 (HepG2 [7]) | relative viability EC50 (Caco-2 [8]) | relative viability EC50 (Vero E6 [9]) | relative viability EC50 (Calu-3 [10]) | drug sensitivity score (U2OS [11]) | drug sensitivity score (HepG2 [12]) | drug sensitivity score (Caco-2 [13]) | drug sensitivity score (Vero E6 [14]) | drug sensitivity score (Calu-3 [15])
1 | C=C[C@@](C)(/C=C/c1ccc(O)cc1)CCC=C(C)C [bakuchiol] | 96.1% | 101% | 98% | 92.8% | 97.6% | 107% | 115% | 87.9% | 93% | 81.5% | 105% | 87.4% | 109% | 96.8% | 97.6% | 103% | 110% | 98.7% | 97.6% | 98.5% | 94.8% | 94.9% | 95.7% | 96.1% | 98.2% | > 10 µM | > 10 µM | > 10 µM | > 10 µM | > 10 µM | 0 | 0.9 | 0 | 0 | 0
2 | O=C1C[C@@H](c2ccc(O)cc2)Oc2cc(O)cc(O)c21 [naringenin] | 98.9% | 104% | 95.6% | 102% | 103% | 104% | 107% | 99.3% | 95.1% | 99.9% | 114% | 103% | 90.3% | 97.2% | 88.5% | 101% | 99.7% | 101% | 94% | 93.3% | 93.2% | 97.9% | 89.9% | 99.7% | 93.7% | > 10 µM | > 10 µM | > 10 µM | > 10 µM | > 10 µM | 0 | 0 | 0 | 0 | 0
3 | CC(C)C[C@@H](NC(=O)[C@H](C)NC(=O)CNC(=O)[C@@H](NC=O)C(C)C)C(=O)N[C@@H](C)C(=O)N[C@@H](C(=O)N[C@H](C(=O)N[C@@H](C(=O)N[C@@H](Cc1c[nH]c2ccccc12)C(=O)N[C@H](CC(C)C)C(=O)N[C@@H](Cc1c[nH]c2ccccc12)C(=O)N[C@H](CC(C)C)C(=O)N[C@@H](Cc1c[nH]c2ccccc12)C(=O)N[C@H](CC(C)C)C(=O)N[C@@H](Cc1c[nH]c2ccccc12)C(=O)NCCO)C(C)C)C(C)C)C(C)C [gramicidin] | 97.5% | 94.3% | 32.4% | 97.4% | 20.3% | 101% | 100% | 26.4% | 114% | 121% | 90% | 118% | 54.6% | 106% | 90.7% | 99.2% | 94.3% | 94% | 92.5% | 98.3% | 109% | 94.2% | 87.9% | 95.7% | 42.9% | 0.466 µM | > 10 µM | > 10 µM | > 10 µM | 2.55 µM | 12.3 | 0 | 0 | 0 | 3.7
4 | C[C@]12CCC(=O)C=C1CC[C@@H]1[C@@H]2CC[C@@]2(C)[C@H]1CC[C@]2(C)O [17-alpha-Methyltestosterone] | 97.6% | 96.1% | 104% | 101% | 97.1% | 103% | 90.8% | 91.5% | 96.8% | 101% | 99.2% | 89.5% | 90.4% | 98.8% | 102% | 92.6% | 97.4% | 94.4% | 91.9% | 105% | 108% | 97.1% | 114% | 106% | 115% | > 10 µM | > 10 µM | > 10 µM | > 10 µM | > 10 µM | 0 | 0 | 0 | 0 | 0
5 | CC(C)C[C@@H](N)C1(c2ccc(Cl)cc2)CCC1 | 98.9% | 98.3% | 94.2% | 99% | 94.1% | 104% | 99.9% | 110% | 103% | 104% | 101% | 103% | 108% | 96% | 90.3% | 106% | 101% | 100% | 98.8% | 105% | 96% | 104% | 109% | 89.9% | 102% | > 10 µM | > 10 µM | > 10 µM | > 10 µM | > 10 µM | 0 | 0 | 0 | 0 | 0
6 | CN(C)CCC=C1c2ccccc2CCc2ccccc21 [amitriptyline] | 102% | 98.5% | 100% | 101% | 92.3% | 107% | 102% | 99.1% | 93% | 83.5% | 110% | 77.9% | 104% | 96.5% | 90.8% | 102% | 94% | 86.5% | 113% | 86.3% | 99.6% | 109% | 110% | 104% | 90.3% | > 10 µM | > 10 µM | > 10 µM | > 10 µM | > 10 µM | 0 | 0.8 | 0 | 0 | 0
7 | CCC1=C[C@@H]2CN(C1)Cc1c([nH]c3ccccc13)[C@@](C(=O)OC)(c1cc3c(cc1OC)N(C)[C@H]1[C@@](O)(C(=O)OC)[C@H](OC(C)=O)[C@]4(CC)C=CCN5CC[C@]31[C@@H]54)C2 [vinorelbine] | 95.8% | 97% | 77.5% | 32.4% | 22.7% | 103% | 92.8% | 58.6% | 32.7% | 39% | 98.1% | 94.7% | 58.7% | 53% | 45.1% | 104% | 101% | 99.5% | 54% | 31.2% | 97.5% | 100% | 72.2% | 51.1% | 40.5% | 0.205 µM | 0.0659 µM | 0.0465 µM | 0.754 µM | 0.137 µM | 15.2 | 17.5 | 15.3 | 9.2 | 12.6
8 | CC(C)C(=O)Oc1ccc(CO)cc1[C@H](CCN(C(C)C)C(C)C)c1ccccc1 [fesoterodine] | 105% | 95.8% | 98.2% | 99.8% | 100% | 101% | 104% | 83.7% | 90.9% | 90.7% | 91.6% | 99.1% | 103% | 98.8% | 96.5% | 100% | 99.9% | 99.2% | 104% | 92.6% | 102% | 97.3% | 90.2% | 100% | 104% | > 10 µM | > 10 µM | > 10 µM | > 10 µM | > 10 µM | 0 | 3 | 0 | 0 | 0
9 | c1ccc2oc(C3=NCCN3)cc2c1 [2-BFI] | 100% | 96.7% | 99.7% | 99.9% | 97.7% | 97.9% | 98.3% | 87.5% | 98% | 100% | 102% | 96.2% | 97.7% | 93.6% | 112% | 93.8% | 100% | 90.5% | 94.4% | 107% | 95.9% | 99.7% | 102% | 100% | 95.7% | > 10 µM | > 10 µM | > 10 µM | > 10 µM | > 10 µM | 0 | 0 | 0 | 0 | 0
10 | CCO[C@@H](Cc1ccc(OCCc2ccc(OS(C)(=O)=O)cc2)cc1)C(=O)O [tesaglitazar] | 100% | 95.9% | 95.7% | 101% | 105% | 101% | 96.7% | 104% | 91.1% | 98.1% | 101% | 86% | 94.1% | 100% | 99.2% | 99.2% | 99.5% | 96% | 81.9% | 82.6% | 105% | 104% | 97.9% | 113% | 110% | > 10 µM | > 10 µM | > 10 µM | > 10 µM | > 10 µM | 0 | 0 | 0 | 2.7 | 0
11 | CC(Cc1ccc(O)cc1)NCC(O)c1cc(O)cc(O)c1 (stereo not given) [fenoterol] | 101% | 95.1% | 96.4% | 98.5% | 98.4% | 84.4% | 92.7% | 94% | 93.8% | 82.9% | 124% | 99.3% | 103% | 92.4% | 111% | 97.6% | 108% | 96.7% | 103% | 92.1% | 103% | 114% | 105% | 95.9% | 103% | > 10 µM | > 10 µM | > 10 µM | > 10 µM | > 10 µM | 0 | 0 | 0 | 0 | 0
12 | O=C1CC2(CCCC2)CC(=O)N1CCNC[C@H]1COc2ccccc2O1 | 103% | 97% | 97.2% | 96.3% | 101% | 108% | 108% | 93.2% | 110% | 98.3% | 95.4% | 89% | 99.9% | 98.5% | 101% | 99.4% | 101% | 106% | 92.6% | 97.8% | 92.5% | 107% | 98.4% | 107% | 96.3% | > 10 µM | > 10 µM | > 10 µM | > 10 µM | > 10 µM | 0 | 0 | 0 | 0 | 0
13 | O=C(Oc1ccc(Br)cc1)N1CCN2CCC1CC2 | 99% | 102% | 104% | 99% | 98.4% | 97.7% | 101% | 97% | 103% | 108% | 101% | 105% | 94.2% | 98% | 102% | 94.2% | 101% | 93.5% | 95.5% | 104% | 97.5% | 101% | 101% | 100% | 95.7% | > 10 µM | > 10 µM | > 10 µM | > 10 µM | > 10 µM | 0 | 0 | 0 | 0 | 0
14 | CC1(C)O[C@@H]2C[C@H]3[C@@H]4CCC5=CC(=O)CC[C@]5(C)[C@@]4(F)[C@@H](O)C[C@]3(C)[C@]2(C(=O)CCl)O1 [halcinonide] | 102% | 103% | 96.7% | 89.6% | 97.6% | 104% | 98% | 97.7% | 95.8% | 96% | 106% | 99.4% | 106% | 99% | 104% | 101% | 103% | 97.4% | 98.4% | 98.1% | 106% | 98.3% | 96.6% | 100% | 102% | > 10 µM | > 10 µM | > 10 µM | > 10 µM | > 10 µM | 0.1 | 0 | 0 | 0 | 0
